Measurements published in ChEMBL document CHEMBL3853318, “Structure-Based Optimization of Potent, Selective, and Orally Bioavailable CDK8 Inhibitors Discovered by High-Throughput Screening” (J Med Chem, 2016).

Assays:
[1] = Intrinsic clearance in human liver microsomes at 1 uM preincubated for 5 mins followed by NADPH addition measured after 5 to 30 mins by LC-MS/MS analysis; assay type: ADME; conditions: read-out: CLH
[2] = biological target: Cyclin-dependent kinase 8 (Homo sapiens, UniProt P49336); experiment: Inhibition of CDK8 in human 7dF3 cells preincubated for 2 hrs followed by beta-oestradiol addition measured after 24 hrs by luciferase reporter gene assay; assay type: cell-based
Sequence of Cyclin-dependent kinase 8 (P49336 whole entry): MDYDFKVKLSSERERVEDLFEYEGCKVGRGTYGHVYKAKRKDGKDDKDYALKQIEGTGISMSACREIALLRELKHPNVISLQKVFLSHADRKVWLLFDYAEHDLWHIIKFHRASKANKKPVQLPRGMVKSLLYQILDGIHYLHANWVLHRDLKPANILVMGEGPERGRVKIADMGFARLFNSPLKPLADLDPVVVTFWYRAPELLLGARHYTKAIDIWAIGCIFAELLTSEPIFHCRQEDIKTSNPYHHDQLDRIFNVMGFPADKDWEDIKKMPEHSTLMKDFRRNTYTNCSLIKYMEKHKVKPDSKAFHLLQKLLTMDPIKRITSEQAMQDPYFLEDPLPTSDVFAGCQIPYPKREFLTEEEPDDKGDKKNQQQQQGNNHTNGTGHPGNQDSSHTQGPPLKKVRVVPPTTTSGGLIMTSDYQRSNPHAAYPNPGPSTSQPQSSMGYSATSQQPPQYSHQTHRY

CDK8/Cyclin C = CDK8/Cyclin C (Homo sapiens, UniProt P49336); experiment: Inhibition of Alexa647 tracer binding to full length recombinant human His-tagged CDK8/cyclin C expressed in Baculovirus expression system preincubated for 20 mins followed by tracer addition and incubated in dark for 60 mins by FRET-based Lanthascreen assay
Sequence of CDK8/Cyclin C (P49336 whole entry): as above
Sequence of CDK8/Cyclin C (P24863 whole entry, further chain): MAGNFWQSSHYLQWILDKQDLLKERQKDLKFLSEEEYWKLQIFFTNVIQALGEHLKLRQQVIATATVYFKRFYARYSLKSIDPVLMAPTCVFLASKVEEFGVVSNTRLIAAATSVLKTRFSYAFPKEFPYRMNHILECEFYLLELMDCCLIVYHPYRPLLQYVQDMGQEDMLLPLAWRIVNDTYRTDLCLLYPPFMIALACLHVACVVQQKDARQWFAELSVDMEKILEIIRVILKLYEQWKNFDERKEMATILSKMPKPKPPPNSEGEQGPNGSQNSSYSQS

[3] = Intrinsic clearance in mouse liver microsomes at 1 uM preincubated for 5 mins followed by NADPH addition measured after 5 to 30 mins by LC-MS/MS analysis; assay type: ADME; conditions: read-out: CLH
[4] = Intrinsic clearance in rat liver microsomes at 1 uM preincubated for 5 mins followed by NADPH addition measured after 5 to 30 mins by LC-MS/MS analysis; assay type: ADME; conditions: read-out: CLH
[5] = biological target: T1, Tyrosine-protein kinase JAK2 (Homo sapiens, UniProt O60674); experiment: Inhibition of JAK2 (unknown origin) at 1 uM relative to control
[6] = biological target: T2, Tyrosine-protein kinase JAK1 (Homo sapiens, UniProt P23458); experiment: Inhibition of JAK1 (unknown origin) at 1 uM relative to control
T2 sequence (P23458 whole entry): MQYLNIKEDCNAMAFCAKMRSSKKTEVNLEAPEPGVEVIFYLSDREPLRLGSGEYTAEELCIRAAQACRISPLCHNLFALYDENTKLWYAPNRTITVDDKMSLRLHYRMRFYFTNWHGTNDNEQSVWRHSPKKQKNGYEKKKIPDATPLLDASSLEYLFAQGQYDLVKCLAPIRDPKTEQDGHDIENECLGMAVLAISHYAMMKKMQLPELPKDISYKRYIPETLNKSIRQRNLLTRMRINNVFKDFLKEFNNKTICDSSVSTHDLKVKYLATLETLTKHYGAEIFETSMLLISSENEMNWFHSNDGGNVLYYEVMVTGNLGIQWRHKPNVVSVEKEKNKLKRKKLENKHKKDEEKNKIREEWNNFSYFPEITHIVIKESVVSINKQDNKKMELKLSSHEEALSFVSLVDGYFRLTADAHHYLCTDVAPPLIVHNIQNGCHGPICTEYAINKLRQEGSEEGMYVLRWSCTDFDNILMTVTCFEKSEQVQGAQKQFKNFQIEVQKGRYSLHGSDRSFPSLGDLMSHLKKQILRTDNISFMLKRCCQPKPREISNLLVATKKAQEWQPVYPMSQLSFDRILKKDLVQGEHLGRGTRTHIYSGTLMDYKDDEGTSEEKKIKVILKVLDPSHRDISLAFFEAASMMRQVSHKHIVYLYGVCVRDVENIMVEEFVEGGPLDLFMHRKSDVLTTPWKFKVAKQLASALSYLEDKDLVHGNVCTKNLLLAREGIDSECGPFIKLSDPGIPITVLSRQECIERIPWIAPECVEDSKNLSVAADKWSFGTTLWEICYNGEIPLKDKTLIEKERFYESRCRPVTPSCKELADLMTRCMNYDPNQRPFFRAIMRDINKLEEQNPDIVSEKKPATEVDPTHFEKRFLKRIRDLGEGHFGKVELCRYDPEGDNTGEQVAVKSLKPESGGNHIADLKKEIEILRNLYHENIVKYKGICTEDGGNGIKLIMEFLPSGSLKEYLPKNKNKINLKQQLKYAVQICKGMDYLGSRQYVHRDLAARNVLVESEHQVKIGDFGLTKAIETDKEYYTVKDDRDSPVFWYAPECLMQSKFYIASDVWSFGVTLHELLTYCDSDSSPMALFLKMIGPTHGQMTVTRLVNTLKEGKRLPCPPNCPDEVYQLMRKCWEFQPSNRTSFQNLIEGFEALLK

[7] = biological target: T3, Tyrosine-protein kinase JAK3 (Homo sapiens) (UniProt P52333); experiment: Inhibition of JAK3 (unknown origin) at 1 uM relative to control
T3 sequence (whole entry): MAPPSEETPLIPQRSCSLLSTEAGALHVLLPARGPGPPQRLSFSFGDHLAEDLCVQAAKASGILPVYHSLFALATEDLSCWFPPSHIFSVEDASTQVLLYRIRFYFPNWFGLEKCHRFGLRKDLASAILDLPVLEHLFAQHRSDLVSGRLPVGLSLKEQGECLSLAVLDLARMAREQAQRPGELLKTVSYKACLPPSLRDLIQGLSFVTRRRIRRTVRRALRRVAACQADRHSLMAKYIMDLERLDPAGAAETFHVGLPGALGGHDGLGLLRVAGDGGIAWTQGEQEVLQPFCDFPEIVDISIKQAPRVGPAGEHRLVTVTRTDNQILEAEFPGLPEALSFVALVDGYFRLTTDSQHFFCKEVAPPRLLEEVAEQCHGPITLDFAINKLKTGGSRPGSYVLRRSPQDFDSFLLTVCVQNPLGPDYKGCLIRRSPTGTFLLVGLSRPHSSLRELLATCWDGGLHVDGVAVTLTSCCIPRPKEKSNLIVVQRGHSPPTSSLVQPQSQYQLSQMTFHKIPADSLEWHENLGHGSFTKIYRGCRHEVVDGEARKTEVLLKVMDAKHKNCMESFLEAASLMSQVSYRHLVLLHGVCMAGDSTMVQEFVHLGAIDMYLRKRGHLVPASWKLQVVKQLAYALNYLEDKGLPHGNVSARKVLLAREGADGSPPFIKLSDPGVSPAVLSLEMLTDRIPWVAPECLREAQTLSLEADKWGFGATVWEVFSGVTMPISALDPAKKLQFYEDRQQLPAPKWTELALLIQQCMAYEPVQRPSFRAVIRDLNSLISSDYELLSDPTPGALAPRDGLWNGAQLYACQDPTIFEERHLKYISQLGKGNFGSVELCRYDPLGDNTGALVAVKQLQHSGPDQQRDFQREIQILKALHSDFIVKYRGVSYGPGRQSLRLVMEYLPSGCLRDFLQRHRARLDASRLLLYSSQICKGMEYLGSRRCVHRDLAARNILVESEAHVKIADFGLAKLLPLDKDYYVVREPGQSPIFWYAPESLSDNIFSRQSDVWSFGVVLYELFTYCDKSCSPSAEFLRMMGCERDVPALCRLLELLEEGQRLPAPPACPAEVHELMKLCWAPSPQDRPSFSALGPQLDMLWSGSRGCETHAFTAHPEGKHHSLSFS

[8] = biological target: T4, Rho-associated protein kinase 2 (Homo sapiens, UniProt O75116); experiment: Inhibition of ROCK-2 (unknown origin) at 1 uM relative to control
Target sequence in this assay (O75116 whole entry, looked up): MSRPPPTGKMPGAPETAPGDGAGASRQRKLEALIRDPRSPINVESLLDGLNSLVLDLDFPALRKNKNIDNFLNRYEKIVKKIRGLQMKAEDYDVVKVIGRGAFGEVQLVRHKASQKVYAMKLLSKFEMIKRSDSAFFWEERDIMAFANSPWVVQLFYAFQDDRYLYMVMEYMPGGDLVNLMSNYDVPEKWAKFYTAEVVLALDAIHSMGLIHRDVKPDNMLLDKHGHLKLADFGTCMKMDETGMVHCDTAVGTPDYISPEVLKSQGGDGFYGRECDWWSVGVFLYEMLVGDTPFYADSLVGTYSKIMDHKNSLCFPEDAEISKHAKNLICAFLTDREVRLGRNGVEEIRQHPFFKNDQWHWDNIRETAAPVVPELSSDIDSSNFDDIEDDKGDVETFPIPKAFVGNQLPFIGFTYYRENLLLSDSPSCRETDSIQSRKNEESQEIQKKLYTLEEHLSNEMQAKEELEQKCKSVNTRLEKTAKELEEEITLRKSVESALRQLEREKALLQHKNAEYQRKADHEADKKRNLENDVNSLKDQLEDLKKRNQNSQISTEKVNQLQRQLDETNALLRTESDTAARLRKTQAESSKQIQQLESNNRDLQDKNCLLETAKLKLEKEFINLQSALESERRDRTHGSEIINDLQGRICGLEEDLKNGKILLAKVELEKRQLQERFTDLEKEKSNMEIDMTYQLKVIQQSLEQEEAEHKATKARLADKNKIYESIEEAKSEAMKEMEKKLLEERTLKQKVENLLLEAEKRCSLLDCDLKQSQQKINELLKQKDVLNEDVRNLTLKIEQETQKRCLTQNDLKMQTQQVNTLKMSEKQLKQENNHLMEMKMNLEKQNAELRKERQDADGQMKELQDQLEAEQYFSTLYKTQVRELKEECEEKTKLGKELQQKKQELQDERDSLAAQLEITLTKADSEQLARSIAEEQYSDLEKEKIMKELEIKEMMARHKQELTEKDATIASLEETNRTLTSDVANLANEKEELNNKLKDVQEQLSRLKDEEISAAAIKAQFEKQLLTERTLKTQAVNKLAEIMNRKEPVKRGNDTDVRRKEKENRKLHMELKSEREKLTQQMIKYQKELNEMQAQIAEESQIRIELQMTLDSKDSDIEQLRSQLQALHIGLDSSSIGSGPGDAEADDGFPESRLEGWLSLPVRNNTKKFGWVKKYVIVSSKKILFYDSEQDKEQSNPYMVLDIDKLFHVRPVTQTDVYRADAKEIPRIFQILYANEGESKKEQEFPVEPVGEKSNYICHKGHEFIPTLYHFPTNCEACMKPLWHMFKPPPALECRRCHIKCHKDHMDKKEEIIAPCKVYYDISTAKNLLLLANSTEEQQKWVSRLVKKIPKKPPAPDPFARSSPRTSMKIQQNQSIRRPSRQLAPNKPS

[9] = biological target: T5, Non-receptor tyrosine-protein kinase TYK2 (Homo sapiens, UniProt P29597); experiment: Inhibition of TYK2 (unknown origin) at 1 uM relative to control
T5 sequence (P29597 whole entry): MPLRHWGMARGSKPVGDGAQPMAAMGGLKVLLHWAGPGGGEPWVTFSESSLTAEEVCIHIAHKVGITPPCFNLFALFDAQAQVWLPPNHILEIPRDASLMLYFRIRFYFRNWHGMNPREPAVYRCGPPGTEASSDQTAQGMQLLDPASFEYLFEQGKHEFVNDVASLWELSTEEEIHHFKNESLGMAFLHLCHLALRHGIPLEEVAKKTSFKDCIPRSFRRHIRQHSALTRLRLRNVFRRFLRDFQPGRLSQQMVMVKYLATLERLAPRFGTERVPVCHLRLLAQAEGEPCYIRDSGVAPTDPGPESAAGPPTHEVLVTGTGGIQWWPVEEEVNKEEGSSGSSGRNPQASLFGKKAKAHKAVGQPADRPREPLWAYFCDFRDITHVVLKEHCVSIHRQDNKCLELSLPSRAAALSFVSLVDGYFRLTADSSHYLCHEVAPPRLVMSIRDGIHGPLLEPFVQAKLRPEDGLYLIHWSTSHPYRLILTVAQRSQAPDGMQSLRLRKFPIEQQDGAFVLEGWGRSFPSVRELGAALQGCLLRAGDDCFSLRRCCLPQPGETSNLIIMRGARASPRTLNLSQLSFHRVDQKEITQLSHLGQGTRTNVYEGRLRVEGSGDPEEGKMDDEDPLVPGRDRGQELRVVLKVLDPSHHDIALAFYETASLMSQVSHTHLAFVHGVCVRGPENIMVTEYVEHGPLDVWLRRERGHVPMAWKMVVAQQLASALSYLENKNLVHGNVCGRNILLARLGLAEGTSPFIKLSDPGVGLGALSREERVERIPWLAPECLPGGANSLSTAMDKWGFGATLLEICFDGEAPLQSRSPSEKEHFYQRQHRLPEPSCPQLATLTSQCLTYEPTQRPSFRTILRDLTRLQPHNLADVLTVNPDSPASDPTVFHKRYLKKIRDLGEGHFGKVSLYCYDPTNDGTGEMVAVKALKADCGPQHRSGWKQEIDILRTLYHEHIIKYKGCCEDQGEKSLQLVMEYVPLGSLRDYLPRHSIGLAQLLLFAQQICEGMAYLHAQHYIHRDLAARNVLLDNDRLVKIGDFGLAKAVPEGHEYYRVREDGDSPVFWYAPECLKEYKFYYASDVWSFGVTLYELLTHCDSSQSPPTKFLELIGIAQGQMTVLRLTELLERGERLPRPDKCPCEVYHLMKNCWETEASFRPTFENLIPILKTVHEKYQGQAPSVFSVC

7dF3 = experiment: Ratio of IC50 for CDK8 in human 7dF3 cells to IC50 for Alexa647 tracer binding to full length recombinant human His-tagged CDK8/cyclin C; assay type: cell-based
[10] = Apparent permeability from apical to basolateral side in human Caco2 cells at 1 uM after 2 hrs by Transwell assay; assay type: ADME, cell-based; conditions: Caco-2
[11] = Efflux ratio of permeability in human Caco2 cells at 1 uM after 2 hrs by Transwell assay; assay type: ADME, cell-based; conditions: Caco-2
[12] = biological target: T5, Non-receptor tyrosine-protein kinase TYK2; experiment: Inhibition of TYK2 (unknown origin)
[13] = biological target: T6, Tyrosine-protein kinase JAK3 (Homo sapiens, UniProt P52333); experiment: Inhibition of JAK3 (unknown origin)
T6 sequence (P52333 whole entry): T3 sequence (whole entry)

[14] = biological target: T2, Tyrosine-protein kinase JAK1; experiment: Inhibition of JAK1 (unknown origin)
[15] = biological target: T4, Rho-associated protein kinase 2; experiment: Inhibition of ROCK-2 (unknown origin)
Target sequence in this assay (O75116 whole entry): as the sequence (O75116 whole entry, looked up) above

[16] = biological target: T1, Tyrosine-protein kinase JAK2; experiment: Inhibition of JAK2 (unknown origin)

| microsomal CLint at 1 µM [1] [µL/min/mg] | IC50 [2] [nM] | IC50 (CDK8/Cyclin C) [nM] | microsomal CLint at 1 µM [3] [µL/min/mg] | microsomal CLint at 1 µM [4] [µL/min/mg] | inhibition [5] [%] | inhibition [6] [%] | inhibition [7] [%] | inhibition [8] [%] | inhibition [9] [%] | Papp A→B at 2 h, 1 µM [10] [×10⁻⁶ cm/s] | efflux ratio at 2 h, 1 µM [11] | IC50 [12] [nM] | IC50 [13] [nM] | IC50 [14] [nM] | IC50 [15] [nM] | IC50 [16] [nM] | Compound | Ratio IC50 (7dF3) |
| --- | --- | --- | --- | --- | --- | --- | --- | --- | --- | --- | --- | --- | --- | --- | --- | --- | --- | --- |
| 390 | 90 | 9 | 63 | 108 | – | – | – | – | – | – | – | – | – | – | – | – | Cc1ncc2ccc(C(=O)N3CCC[C@H]3c3ccc(Cl)cc3)cn12 | – |
| 10 | 435 | 49 | 10 | < 10 | 24 | 63 | 21 | 12 | 45 | – | – | – | – | – | – | – | Nc1n[nH]c2ccc(C(=O)N3CC[C@H]3c3ccc(F)cc3)cc12 | – |
| 56 | 415 | 77 | 145 | 446 | – | – | – | – | – | – | – | – | – | – | – | – | Cc1ncc2sc(C(=O)N3CCCC3c3ccccc3)nn12 (centres undefined) | 3 |
| 908 | 2 | 1.7 | 113 | 62 | – | – | – | – | – | – | – | – | – | – | – | – | Cc1n[nH]c2ccc(C(=O)N3CC[C@H]3c3ccc(Cl)cc3)cc12 | – |
| 38 | 290 | 60 | 129 | 280 | – | – | – | – | – | – | – | – | – | – | – | – | Cc1ncc2sc(C(=O)N3CCCC3c3ccc(F)cc3)nn12 (centres undefined) | 3 |
| 100 | 2.8 | 1.3 | 29 | 69 | – | – | – | – | – | – | – | – | – | – | – | – | Cc1n[nH]c2ccc(C(=O)N3CCC[C@H]3c3ccc(Cl)cc3)nc12 | – |
| 23 | 28 | 4.9 | 10 | 10 | 84 | 86 | 79 | 42 | 70 | 33.7 | 2.2 | 279 | 219 | 90 | 1330 | 286 | Nc1n[nH]c2ccc(C(=O)N3CCC[C@H]3c3ccc(Cl)cc3)cc12 | – |
| 61 | 2450 | 781 | > 1000 | 38 | – | – | – | – | – | – | – | – | – | – | – | – | CCOc1ccccc1C(C)NC(=O)c1nn2c(C)ncc2s1 (centres undefined) | 3 |
| 18 | 12 | 5.4 | 31 | 28 | 34 | 34 | 37 | 17 | 32 | – | – | – | – | – | – | – | CNc1n[nH]c2ccc(C(=O)N3CCC[C@H]3c3ccc(Cl)cc3)cc12 | – |
| < 10 | 150 | 24 | 19 | 26 | – | 24 | 15 | 20 | 23 | – | – | – | – | – | – | – | Nc1n[nH]c2ccc(C(=O)N3CC[C@@H](c4ccc(Cl)cc4)C3)cc12 | – |
| 49 | 70 | 3.8 | 447 | 655 | – | – | – | – | – | – | – | – | – | – | – | – | Cc1ncc2sc(C(=O)N3CCC[C@H]3c3ccc(Cl)cc3)nn12 | – |
| < 10 | > 10000 | 3990 | 18 | 19 | – | – | – | – | – | – | – | – | – | – | – | – | Cc1nnc2ccc(C(=O)N3CCC[C@H]3c3ccc(Cl)cc3)cn12 | – |
| 206 | 125 | 11 | 61 | 70 | – | – | – | – | – | – | – | – | – | – | – | – | Cc1n[nH]c2cnc(C(=O)N3CCC[C@H]3c3ccc(Cl)cc3)cc12 | – |
| 525 | 0.6 | 1.4 | 244 | 79 | – | – | – | – | – | – | – | – | – | – | – | – | Cc1n[nH]c2ccc(C(=O)N3CCC[C@H]3c3ccc(Cl)cc3)cc12 | – |
| 354 | 100 | 32 | 86 | 94 | – | – | – | – | – | – | – | – | – | – | – | – | O=C(c1ccc2[nH]ncc2c1)N1CCC[C@H]1c1ccc(Cl)cc1 | – |
| 52 | 100 | 17 | 388 | 719 | – | – | – | – | – | – | – | – | – | – | – | – | Cc1ncc2sc(C(=O)N3CCCC3c3ccc(Cl)cc3)nn12 (centres undefined) | – |
| < 10 | 120 | 32 | < 10 | < 10 | 59 | 72 | 58 | 27 | 62 | – | – | – | – | – | – | – | Nc1n[nH]c2ccc(C(=O)N3CCC[C@H]3c3ccc(F)cc3)cc12 | – |
| 135 | 230 | 15 | 63 | 40 | – | – | – | – | – | – | – | – | – | – | – | – | Cc1n[nH]c2ccc(C(=O)N3CCN(C)CC3c3ccc(Cl)cc3)cc12 (centres undefined) | – |
| > 1000 | 1650 | 129 | 119 | 435 | – | – | – | – | – | – | – | – | – | – | – | – | CCOc1ccccc1CNC(=O)c1nn2c(C)ncc2s1 | 3 |
| < 10 | 800 | 45 | 28 | 15 | -2 | 21 | – | 22 | 17 | – | – | – | – | – | – | – | Nc1n[nH]c2ccc(C(=O)N3CCCC[C@H]3c3ccc(F)cc3)cc12 | – |
| 60 | 1600 | 110 | 514 | 449 | – | – | – | – | – | – | – | – | – | – | – | – | Cc1ncc2sc(C(=O)N3CCC[C@@H]3c3ccc(Cl)cc3)nn12 | – |
| 135 | 115 | 8.5 | 29 | 44 | – | – | – | – | – | – | – | – | – | – | – | – | Cc1n[nH]c2ccc(C(=O)N3CCOCC3c3ccc(Cl)cc3)cc12 (centres undefined) | – |
| < 10 | 19 | 3.1 | 14 | < 10 | 88 | 88 | 76 | 65 | 76 | – | – | – | – | – | – | – | Nc1n[nH]c2ccc(C(=O)N3CCC[C@H]3c3ccc(Br)cc3)cc12 | – |
